# Laboratory results from ChEMBL document CHEMBL4270485, “Determination of Gymnemic Acid I as a Protein Biosynthesis Inhibitor Using Chemical Proteomics” (J Nat Prod, 2017).
# Experiments:
# [1] = biological target: Elongation factor 2 (Homo sapiens) (UniProt P13639); test: Binding affinity to eukaryotic translation initiation factor in human Hela cells lysates assessed as protein enrichment by measuring normalized heavy/light ratio at by nano-LC-ESIMS/MS analysis; format: cell-free
# [2] = biological target: Elongation factor 1-alpha 1 (Homo sapiens) (UniProt P68104); test: Binding affinity to elongation factor 1-alpha 1 in human Hela cells lysates assessed as protein enrichment by measuring normalized heavy/light ratio at by nano-LC-ESIMS/MS analysis; format: cell-free
# Chain of Elongation factor 1-alpha 1 (Homo sapiens) (P68104 whole entry): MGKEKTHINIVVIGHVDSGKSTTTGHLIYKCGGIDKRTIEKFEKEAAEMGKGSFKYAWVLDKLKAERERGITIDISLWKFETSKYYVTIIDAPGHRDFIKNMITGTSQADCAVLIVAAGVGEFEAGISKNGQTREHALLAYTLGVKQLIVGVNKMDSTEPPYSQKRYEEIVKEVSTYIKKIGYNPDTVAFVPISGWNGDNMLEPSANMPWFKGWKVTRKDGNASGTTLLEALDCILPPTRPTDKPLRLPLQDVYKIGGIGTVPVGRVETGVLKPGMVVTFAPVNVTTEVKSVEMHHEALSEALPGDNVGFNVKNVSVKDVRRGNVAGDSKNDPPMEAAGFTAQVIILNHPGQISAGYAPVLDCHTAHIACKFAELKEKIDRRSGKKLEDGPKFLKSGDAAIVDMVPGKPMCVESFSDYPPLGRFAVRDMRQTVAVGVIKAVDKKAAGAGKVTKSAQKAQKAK
# [3] = biological target: T1, 80S Ribosome (Homo sapiens) (UniProt P08865+P42677+P62753+P15880+P23396+P61247+P62701+P22090+P46782+P62081+P62241+P46781+P46783+P62280+P25398+P62277+P62263+P62841+P62244+P62249+P08708+P62269+P39019+P60866+P63220+P62266+P62847+P62851+P62854+P62979+P62857+P62273+P62861+P39023+P36578+P46777+Q02878+P18124+P62424+P62917+P32969+P27635+P62906+P62913+P30050+P26373+P40429+P50914+P61313+P18621+Q07020+Q02543+P84098+P46778+P35268+P62829+P62750+P83731+P61254+P61353+P46776+P46779+P47914+P62888+P62899+P62910+P49207+P42766+P18077+Q9Y3U8+P83881+P61927+P61513+P63173+P62891+P62945+P05388+P05386); test: Binding affinity to 40S ribosomal protein S30 in human Hela cells lysates assessed as protein enrichment by measuring normalized heavy/light ratio at by nano-LC-ESIMS/MS analysis; format: cell-free
# [4] = biological target: Endoplasmic reticulum chaperone BiP (Homo sapiens) (UniProt P11021); test: Binding affinity to 78 kDa glucose-regulated protein in human Hela cells lysates assessed as protein enrichment by measuring normalized heavy/light ratio at by nano-LC-ESIMS/MS analysis; format: cell-free
# Chain of Endoplasmic reticulum chaperone BiP (Homo sapiens) (P11021 whole entry): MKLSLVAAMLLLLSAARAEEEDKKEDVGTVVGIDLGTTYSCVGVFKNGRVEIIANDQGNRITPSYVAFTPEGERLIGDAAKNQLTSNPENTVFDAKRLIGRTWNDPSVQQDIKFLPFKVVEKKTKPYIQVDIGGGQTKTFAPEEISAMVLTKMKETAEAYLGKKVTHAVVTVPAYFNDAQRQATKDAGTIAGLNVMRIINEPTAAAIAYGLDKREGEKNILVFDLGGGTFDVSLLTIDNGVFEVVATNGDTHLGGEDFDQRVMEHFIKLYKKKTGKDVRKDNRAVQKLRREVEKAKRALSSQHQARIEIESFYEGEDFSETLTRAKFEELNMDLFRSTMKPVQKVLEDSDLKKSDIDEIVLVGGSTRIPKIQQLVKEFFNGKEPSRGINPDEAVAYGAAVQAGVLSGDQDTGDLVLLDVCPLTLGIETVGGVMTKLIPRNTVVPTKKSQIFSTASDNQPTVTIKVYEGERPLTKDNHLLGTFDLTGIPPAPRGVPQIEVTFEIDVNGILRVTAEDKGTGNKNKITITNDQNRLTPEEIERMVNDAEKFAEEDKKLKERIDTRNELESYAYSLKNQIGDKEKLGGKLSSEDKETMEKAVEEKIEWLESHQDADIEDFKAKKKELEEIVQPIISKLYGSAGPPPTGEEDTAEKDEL
# [5] = biological target: T1, 80S Ribosome (Homo sapiens); test: Binding affinity to 40S ribosomal protein S18 in human Hela cells lysates assessed as protein enrichment by measuring normalized heavy/light ratio at by nano-LC-ESIMS/MS analysis; format: cell-free
# [6] = biological target: T1, 80S Ribosome (Homo sapiens); test: Binding affinity to 40S ribosomal protein S3a in human Hela cells lysates assessed as protein enrichment by measuring normalized heavy/light ratio at by nano-LC-ESIMS/MS analysis; format: cell-free
# [7] = biological target: Poly(rC)-binding protein 2 (Homo sapiens) (UniProt Q15366); test: Binding affinity to poly(rC)-binding protein 2 in human Hela cells lysates assessed as protein enrichment by measuring normalized heavy/light ratio at by nano-LC-ESIMS/MS analysis; format: cell-free
# Chain of Poly(rC)-binding protein 2 (Homo sapiens) (Q15366 whole entry): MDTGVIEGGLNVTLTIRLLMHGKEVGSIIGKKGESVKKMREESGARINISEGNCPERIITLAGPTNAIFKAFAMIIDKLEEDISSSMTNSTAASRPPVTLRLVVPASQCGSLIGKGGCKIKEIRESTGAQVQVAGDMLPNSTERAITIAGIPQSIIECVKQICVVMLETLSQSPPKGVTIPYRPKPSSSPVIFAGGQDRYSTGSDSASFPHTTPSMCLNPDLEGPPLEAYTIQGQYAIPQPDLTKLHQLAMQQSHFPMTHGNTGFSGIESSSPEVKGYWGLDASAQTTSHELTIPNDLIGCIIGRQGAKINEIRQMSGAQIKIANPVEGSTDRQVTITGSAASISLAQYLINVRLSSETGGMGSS
# [8] = species: Homo sapiens; test: Binding affinity to histone H2A in human Hela cells lysates assessed as protein enrichment by measuring normalized heavy/light ratio at by nano-LC-ESIMS/MS analysis; format: cell-free
# [9] = biological target: T1, 80S Ribosome (Homo sapiens); test: Binding affinity to 60S ribosomal protein L35 in human Hela cells lysates assessed as protein enrichment by measuring normalized heavy/light ratio at by nano-LC-ESIMS/MS analysis; format: cell-free
# [10] = biological target: T1, 80S Ribosome (Homo sapiens); test: Binding affinity to 40S ribosomal protein S24 in human Hela cells lysates assessed as protein enrichment by measuring normalized heavy/light ratio at by nano-LC-ESIMS/MS analysis; format: cell-free
# [11] = biological target: Elongation factor 1-gamma (Homo sapiens) (UniProt P26641); test: Binding affinity to elongation factor 1-gamma in human Hela cells lysates assessed as protein enrichment by measuring normalized heavy/light ratio at by nano-LC-ESIMS/MS analysis; format: cell-free
# Chain of Elongation factor 1-gamma (Homo sapiens) (P26641 whole entry): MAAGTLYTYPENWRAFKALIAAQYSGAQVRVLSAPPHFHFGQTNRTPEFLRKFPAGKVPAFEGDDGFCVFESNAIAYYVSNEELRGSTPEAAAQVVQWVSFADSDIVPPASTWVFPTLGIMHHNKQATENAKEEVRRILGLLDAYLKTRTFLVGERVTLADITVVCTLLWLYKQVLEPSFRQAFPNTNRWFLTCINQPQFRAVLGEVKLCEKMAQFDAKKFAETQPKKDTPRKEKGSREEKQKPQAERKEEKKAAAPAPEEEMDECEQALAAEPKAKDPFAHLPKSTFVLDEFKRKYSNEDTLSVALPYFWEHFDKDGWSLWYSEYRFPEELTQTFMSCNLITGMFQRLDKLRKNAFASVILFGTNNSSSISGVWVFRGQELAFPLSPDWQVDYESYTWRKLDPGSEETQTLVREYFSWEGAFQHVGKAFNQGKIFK
# [12] = biological target: Tubulin beta-4B chain (Homo sapiens) (UniProt P68371); test: Binding affinity to tubulin beta-4B chain in human Hela cells lysates assessed as protein enrichment by measuring normalized heavy/light ratio at by nano-LC-ESIMS/MS analysis
# Chain of Tubulin beta-4B chain (Homo sapiens) (P68371 whole entry, looked up): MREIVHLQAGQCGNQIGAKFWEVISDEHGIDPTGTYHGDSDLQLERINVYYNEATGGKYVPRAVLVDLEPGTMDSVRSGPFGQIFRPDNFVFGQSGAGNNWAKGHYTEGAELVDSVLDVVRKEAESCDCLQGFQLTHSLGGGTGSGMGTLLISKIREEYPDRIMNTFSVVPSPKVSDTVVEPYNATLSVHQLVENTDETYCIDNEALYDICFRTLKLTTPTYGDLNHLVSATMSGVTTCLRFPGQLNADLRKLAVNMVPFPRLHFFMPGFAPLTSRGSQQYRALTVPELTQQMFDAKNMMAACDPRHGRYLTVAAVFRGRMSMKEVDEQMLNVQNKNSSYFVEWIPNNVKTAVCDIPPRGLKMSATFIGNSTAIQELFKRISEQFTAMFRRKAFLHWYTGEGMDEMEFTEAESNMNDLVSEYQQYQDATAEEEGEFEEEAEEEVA
# [13] = biological target: T1, 80S Ribosome (Homo sapiens); test: Binding affinity to 40S ribosomal protein S5 in human Hela cells lysates assessed as protein enrichment by measuring normalized heavy/light ratio at by nano-LC-ESIMS/MS analysis; format: cell-free
# [14] = biological target: T1, 80S Ribosome (Homo sapiens); test: Binding affinity to 60S ribosomal protein L38 in human Hela cells lysates assessed as protein enrichment by measuring normalized heavy/light ratio at by nano-LC-ESIMS/MS analysis; format: cell-free
# [15] = biological target: Tubulin beta-5 chain (Homo sapiens) (UniProt P07437); test: Binding affinity to tubulin beta chain in human Hela cells lysates assessed as protein enrichment by measuring normalized heavy/light ratio at by nano-LC-ESIMS/MS analysis; format: cell-free
# Chain of Tubulin beta-5 chain (Homo sapiens) (P07437 whole entry): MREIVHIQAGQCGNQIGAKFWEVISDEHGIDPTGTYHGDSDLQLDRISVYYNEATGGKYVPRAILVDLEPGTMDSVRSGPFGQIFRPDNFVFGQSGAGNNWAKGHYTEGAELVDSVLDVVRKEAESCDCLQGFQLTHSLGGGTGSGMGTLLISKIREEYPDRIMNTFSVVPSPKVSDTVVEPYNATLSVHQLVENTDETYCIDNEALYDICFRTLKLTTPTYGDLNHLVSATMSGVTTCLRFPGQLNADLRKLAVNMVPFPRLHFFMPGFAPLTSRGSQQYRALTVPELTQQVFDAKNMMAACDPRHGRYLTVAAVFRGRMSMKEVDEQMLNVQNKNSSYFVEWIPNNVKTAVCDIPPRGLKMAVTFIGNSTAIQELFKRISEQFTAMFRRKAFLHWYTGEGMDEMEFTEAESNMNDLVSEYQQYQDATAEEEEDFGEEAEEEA
# [16] = biological target: Peptidyl-prolyl cis-trans isomerase A (Homo sapiens) (UniProt P62937); test: Binding affinity to peptidyl-prolylcis-trans isomerase in human Hela cells lysates assessed as protein enrichment by measuring normalized heavy/light ratio at by nano-LC-ESIMS/MS analysis; format: cell-free
# Chain of Peptidyl-prolyl cis-trans isomerase A (Homo sapiens) (P62937 whole entry, looked up): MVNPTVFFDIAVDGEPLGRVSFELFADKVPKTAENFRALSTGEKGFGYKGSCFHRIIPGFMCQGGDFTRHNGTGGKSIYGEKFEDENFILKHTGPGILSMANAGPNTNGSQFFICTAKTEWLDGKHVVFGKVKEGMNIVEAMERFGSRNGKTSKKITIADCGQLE
# [17] = biological target: 60 kDa heat shock protein, mitochondrial (Homo sapiens) (UniProt P10809); test: Binding affinity to 60 kDa heat shock protein in human Hela cells lysates assessed as protein enrichment by measuring normalized heavy/light ratio at by nano-LC-ESIMS/MS analysis; format: cell-free
# Chain of 60 kDa heat shock protein, mitochondrial (Homo sapiens) (P10809 whole entry): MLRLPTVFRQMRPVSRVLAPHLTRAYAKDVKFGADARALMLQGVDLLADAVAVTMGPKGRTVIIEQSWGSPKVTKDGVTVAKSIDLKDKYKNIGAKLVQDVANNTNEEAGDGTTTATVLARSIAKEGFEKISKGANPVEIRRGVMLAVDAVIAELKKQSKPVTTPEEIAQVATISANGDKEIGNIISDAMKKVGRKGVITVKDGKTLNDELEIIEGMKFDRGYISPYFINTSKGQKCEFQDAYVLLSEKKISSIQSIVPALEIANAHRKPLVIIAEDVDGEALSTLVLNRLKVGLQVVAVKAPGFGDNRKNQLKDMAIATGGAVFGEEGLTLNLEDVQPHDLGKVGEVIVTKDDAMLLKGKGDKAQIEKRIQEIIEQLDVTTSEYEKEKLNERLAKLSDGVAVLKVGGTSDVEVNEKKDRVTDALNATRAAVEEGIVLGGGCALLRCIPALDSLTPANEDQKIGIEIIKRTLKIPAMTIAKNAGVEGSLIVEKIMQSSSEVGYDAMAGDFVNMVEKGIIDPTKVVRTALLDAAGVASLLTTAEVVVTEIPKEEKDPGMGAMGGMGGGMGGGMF
# [18] = biological target: Alpha-enolase (Homo sapiens) (UniProt P06733); test: Binding affinity to alpha-enolase in human Hela cells lysates assessed as protein enrichment by measuring normalized heavy/light ratio at by nano-LC-ESIMS/MS analysis; format: cell-free
# Chain of Alpha-enolase (Homo sapiens) (P06733 whole entry): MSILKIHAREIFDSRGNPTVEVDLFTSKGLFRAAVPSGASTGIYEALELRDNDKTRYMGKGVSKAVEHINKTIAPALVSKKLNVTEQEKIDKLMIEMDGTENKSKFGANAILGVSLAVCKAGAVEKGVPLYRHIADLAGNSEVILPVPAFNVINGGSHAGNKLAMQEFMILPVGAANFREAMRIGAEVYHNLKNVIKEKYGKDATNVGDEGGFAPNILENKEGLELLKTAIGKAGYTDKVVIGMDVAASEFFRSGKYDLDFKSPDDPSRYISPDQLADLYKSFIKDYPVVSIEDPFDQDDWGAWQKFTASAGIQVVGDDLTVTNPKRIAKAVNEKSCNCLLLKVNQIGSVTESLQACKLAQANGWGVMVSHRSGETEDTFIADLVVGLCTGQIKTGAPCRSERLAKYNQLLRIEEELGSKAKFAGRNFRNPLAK
smiles,measurement,setting,value
C/C=C(\C)C(=O)O[C@H]1[C@H](O)[C@]2(COC(C)=O)[C@@H](O)C[C@]3(C)C(=CC[C@@H]4[C@@]5(C)CC[C@H](O[C@@H]6O[C@H](C(=O)O)[C@@H](O)[C@H](O)[C@H]6O)[C@@](C)(CO)[C@@H]5CC[C@]43C)[C@@H]2CC1(C)C,Ratio,[1],0.795
same,Ratio,[2],0.629
same,Ratio,[3],0.075
same,Ratio,[4],0.527
same,Ratio,[5],0.448
same,Ratio,[6],0.238
same,Ratio,[7],0.633
same,Ratio,[8],0.509
same,Ratio,[9],0.062
same,Ratio,[10],0.173
same,Ratio,[11],0.536
same,Ratio,[12],0.423
same,Ratio,[13],0.255
same,Ratio,[14],0.33
same,Ratio,[15],0.52
same,Ratio,[16],1.21
same,Ratio,[17],0.57
same,Ratio,[18],0.811
